Experimental data taken from PMC6792352, “Limited Chemical Structural Diversity Found to Modulate Thyroid Hormone Receptor in the Tox21 Chemical Library” (Environmental Health Perspectives, 2019).
Structures can show the parent of a compound that is named as a salt.

Assay: in vitro
Conditions: rat, gh3-tre-luc cells

Compound | CC50 at 24 h (AC50 (uM) modified / 1000) [µM] | also measured
CCC(Cl)CCl (centres unmarked) [1,2-Dichlorobutane] |  | CC50 at 24 h (AC50 (uM) modified / 1000, Tox21_110001=Tox21_200147, viability, 1 nM T3 present, 24 h): > 90 µM
ClCCCl [1,2-Dichloroethane] | > 90 | 
CC(Cl)CCl (centres unmarked) [1,2-Dichloropropane] |  | CC50 at 24 h (AC50 (uM) modified / 1000, Tox21_110001=Tox21_200362, viability, 1 nM T3 present, 24 h): > 90 µM
CCOc1ccccc1OCC [1,2-Diethoxybenzene] | > 90 | 
FC(Cl)(Cl)C(F)(Cl)Cl [1,2-Difluoro-1,1,2,2-tetrachloroethane] |  | CC50 at 24 h (AC50 (uM) modified / 1000, Tox21_110001=Tox21_200566, viability, 1 nM T3 present, 24 h): > 100 µM
O=CNNC=O [1,2-Diformylhydrazine] | > 90 | 
CC1=CC(C)(C)Nc2ccccc21 [1,2-Dihydro-2,2,4-trimethylquinoline] | > 90 | 
COc1ccccc1OC [1,2-Dimethoxybenzene] |  | CC50 at 24 h (AC50 (uM) modified / 1000, Tox21_110001=Tox21_302297, viability, 1 nM T3 present, 24 h): > 90 µM
Cc1cccc([N+](=O)[O-])c1C [1,2-Dimethyl-3-nitrobenzene] | > 90 | 
CCCn1cc[n+](C)c1C [1,2-Dimethyl-3-propylimidazolium iodide] | > 90 | 
Cc1ccc([N+](=O)[O-])cc1C [1,2-Dimethyl-4-nitrobenzene] |  | CC50 at 24 h (AC50 (uM) modified / 1000, Tox21_110001=Tox21_201332, viability, 1 nM T3 present, 24 h): > 90 µM
Cc1ncc([N+](=O)[O-])n1C [1,2-Dimethyl-5-nitroimidazole] | > 90 | 
CNNC [1,2-Dimethylhydrazine dihydrochloride] |  | CC50 at 24 h (AC50 (uM) modified / 1000, Tox21_110001=Tox21_201194, viability, 1 nM T3 present, 24 h): > 90 µM
c1ccc(OCCOc2ccccc2)cc1 [1,2-Diphenoxyethane] | > 90 | 
O=C(C(=O)c1ccccc1)c1ccccc1 [1,2-Diphenylethanedione] | > 90 | 
O=C(Cc1ccccc1)c1ccccc1 [1,2-Diphenylethanone] |  | CC50 at 24 h (AC50 (uM) modified / 1000, Tox21_110001=Tox21_302159, viability, 1 nM T3 present, 24 h): > 90 µM
c1ccc(NNc2ccccc2)cc1 [1,2-Diphenylhydrazine] |  | CC50 at 24 h (AC50 (uM) modified / 1000, Tox21_110001=Tox21_202323, viability, 1 nM T3 present, 24 h): > 90 µM; CC50 at 24 h (AC50 (uM) modified / 1000, Tox21_110001=Tox21_300492, viability, 1 nM T3 present, 24 h): 67.9 µM
C=CC1CO1 (centres unmarked) [1,2-Epoxy-3-butene] | > 100 | 
CCC1CO1 (centres unmarked) [1,2-Epoxybutane] | > 90 | 
CCCCCCCCC1CO1 (centres unmarked) [1,2-Epoxydecane] | > 90 | 

Compound | CC50 at 24 h (AC50 (uM) modified / 1000) [µM] | also measured
CCCCCCCCCCC1CO1 (centres unmarked) [1,2-Epoxydodecane] | > 90 | 
CCCCCCCCCCCCCCC1CO1 (centres unmarked) [1,2-Epoxyhexadecane] | > 90 | 
CCCCCCCCCCCCC1CO1 (centres unmarked) [1,2-Epoxytetradecane] | > 90 | 
CC(=O)OCCOC(C)=O [1,2-Ethanediol diacetate] | > 90 | 
CCCCCCC(O)CO (centres unmarked) [1,2-Octanediol] | > 90 | 
Nc1ccccc1N [1,2-Phenylenediamine dihydrochloride] | > 90 | 
CC(O)CO (centres unmarked) [1,2-Propylene glycol] | > 90 | 
CC(C)(C)OC(=O)N1C[C@@H](F)C[C@H]1C(=O)O [1,2-Pyrrolidinedicarboxylicacid,4-fluoro-,1-(1,1-dimethylethyl)ester,(2S,4S)-] | > 90 | 
C=C[Si]1(C)O[Si](C)(C=C)O[Si](C)(C=C)O[Si](C)(C=C)O1 (centres unmarked) [1,3,5,7-Tetramethyl-1,3,5,7-tetravinylcyclotetrasiloxane] |  | CC50 at 24 h (AC50 (uM) modified / 1000, Tox21_110001=Tox21_301527, viability, 1 nM T3 present, 24 h): > 90 µM
O=C(Cl)c1cc(C(=O)Cl)cc(C(=O)Cl)c1 [1,3,5-Benzenetricarbonyl trichloride] | 80 | 
O=C(O)c1cc(C(=O)O)cc(C(=O)O)c1 [1,3,5-Benzenetricarboxylic acid] | > 90 | 
C=CCOc1c(Br)cc(Br)cc1Br [1,3,5-Tribromo-2-(prop-2-en-1-yloxy)benzene] | > 90 | 
COc1c(Br)cc(Br)c(C)c1Br [1,3,5-Tribromo-2-methoxy-4-methylbenzene] | > 90 | 
Clc1cc(Cl)cc(Cl)c1 [1,3,5-Trichlorobenzene] | > 90 | 
CCN1CN(CC)CN(CC)C1 [1,3,5-Triethylhexahydro-s-triazine] | > 90 | 
Oc1cc(O)cc(O)c1 [1,3,5-Trihydroxybenzene dihydrate] | > 50 | 
CC(C)c1cc(C(C)C)cc(C(C)C)c1 [1,3,5-Triisopropylbenzene] | > 90 | 
COc1cc(OC)cc(OC)c1 [1,3,5-Trimethoxybenzene] | > 50 | 
Cc1cc(C)cc(C)c1 [1,3,5-Trimethylbenzene] | > 90 | 
C1OCOCO1 [1,3,5-Trioxane] | > 90 | 
